Measurements: PubChem BioAssay AID330 (DTP/NCI, 2004)
Several values for one entry are separate records, joined by “and”; a condition that tells them apart may be missing. Equal entries are not always repeated. Toxic doses and inconclusive results are not listed. Rule for the calls: active = survival T/C of 150% or more; inactive = T/C below 125% in these data.

Test system: P388 leukemia ip, CD2F1 mice, survival T/C
Assay: NCI In Vivo Anticancer Drug Screen. Data for tumor model P388 Leukemia (intraperitoneal) in CD2F1 (CDF1) mice
Details: endpoint: median survival time, higher = longer survival
Procedure, shortened: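 Mice carrying the transplanted tumor received test compound or vehicle. Survival was recorded in each group, and the value is the treated-group measurement divided by that of the vehicle-treated control group.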

[1] = dose: 50.0 mg/kg/injection, schedule: Q01DX005 (ip), vehicle: Klucel (hydroxypropylcellulose) (HPC)
[2] = dose: 100.0 mg/kg/injection, schedule: Q01DX005 (ip), vehicle: Klucel (hydroxypropylcellulose) (HPC)
[3] = dose: 200.0 mg/kg/injection, schedule: Q01DX005 (ip), vehicle: Klucel (hydroxypropylcellulose) (HPC)
[4] = dose: 12.5 mg/kg/injection, schedule: Q01DX005 (ip), vehicle: Klucel (hydroxypropylcellulose) (HPC)
[5] = dose: 100.0 mg/kg/injection, schedule: Q04DX003 (ip), vehicle: saline with Tween-80
[6] = dose: 200.0 mg/kg/injection, schedule: Q04DX003 (ip), vehicle: saline with Tween-80
[7] = dose: 400.0 mg/kg/injection, schedule: Q04DX003 (ip), vehicle: saline with Tween-80

Measured: T/C

CCOC(=O)/C(C#N)=C/c1ccc(OC)c(OC)c1
inactive: [1] 99 % of control | [2] 108 % of control | [3] 100 % of control

CN=C(c1ccc(NC(=O)c2cc(N)cc(C(=O)Nc3ccc(C(=NC)N(C)C)cc3)c2)cc1)N(C)C
inactive: dose: 6.25 mg/kg/injection, schedule: Q01DX005 (ip), vehicle: Klucel (hydroxypropylcellulose) (HPC) 104 % of control | [4] 104 % of control

O=C(NNC(=S)NC1OC(CO)C(O)C(O)C1O)c1cccc(C(=O)NNC(=S)NC2OC(CO)C(O)C(O)C2O)n1 (stereo unspecified)
inactive: dose: 60.0 mg/kg/injection, schedule: Q01DX005 (ip), vehicle: saline with Tween-80 97 % of control | dose: 60.0 mg/kg/injection, schedule: Q01DX005 (ip), vehicle: saline 106 % of control | dose: 120.0 mg/kg/injection, schedule: Q01DX005 (ip), vehicle: saline with Tween-80 100 % of control | dose: 120.0 mg/kg/injection, schedule: Q01DX005 (ip), vehicle: saline 106 % of control | dose: 240.0 mg/kg/injection, schedule: Q01DX005 (ip), vehicle: saline with Tween-80 96 % of control | dose: 240.0 mg/kg/injection, schedule: Q01DX005 (ip), vehicle: saline 101 % of control

N#CCCCCCCCCCCC(=O)O
inactive: dose: 100.0 mg/kg/injection, schedule: Q01DX009 (ip), vehicle: saline 93 % of control | dose: 200.0 mg/kg/injection, schedule: Q01DX009 (ip), vehicle: saline 91 % of control | dose: 400.0 mg/kg/injection, schedule: Q01DX009 (ip), vehicle: saline 94 % of control

O=C1c2c3c(c4c(c2C(=O)c2c5c(c6c(c21)CCC6)CCC5)CCCC4)CCCC3
inactive: dose: 20.0 mg/kg/injection, schedule: Q01DX009 (ip), vehicle: saline with Tween-80 100 % of control | dose: 40.0 mg/kg/injection, schedule: Q01DX009 (ip), vehicle: saline with Tween-80 99 % of control | dose: 80.0 mg/kg/injection, schedule: Q01DX009 (ip), vehicle: saline with Tween-80 93 % of control

C=CCCCCCCCCC(=O)NCC(C)C
inactive: [5] 86 % of control | [6] 95 % of control | [7] 100 % of control

CC(=O)Oc1c(OC(C)=O)c(C=O)c2c(OC(C)=O)c(-c3c(C)cc4c(C(C)C)c(OC(C)=O)c(OC(C)=O)c(C=O)c4c3OC(C)=O)c(C)cc2c1C(C)C
inactive: [4] 102 % of control | dose: 25.0 mg/kg/injection, schedule: Q01DX005 (ip), vehicle: Klucel (hydroxypropylcellulose) (HPC) 107 % of control | [1] 103 % of control and 111 % of control

CCSC(SCC)C(NC(C)=O)C(OC(C)=O)C(OC(C)=O)C(COC(C)=O)OC(C)=O (stereo unspecified)
inactive: dose: 12.5 mg/kg/injection, schedule: Q01DX009 (ip), vehicle: other 107 % of control | dose: 25.0 mg/kg/injection, schedule: Q01DX009 (ip), vehicle: other 107 % of control | dose: 50.0 mg/kg/injection, schedule: Q01DX009 (ip), vehicle: other 95 % of control | dose: 100.0 mg/kg/injection, schedule: Q01DX009 (ip), vehicle: other 107 % of control | dose: 200.0 mg/kg/injection, schedule: Q01DX009 (ip), vehicle: other 98 % of control

COc1cc2c(cc1OC)[C@H](C(=O)O)C(c1ccc3c(c1)OCO3)N(C)C2=O (stereo partly specified)
inactive: [1] 95 % of control | [2] 103 % of control | [3] 88 % of control

[CH3][Sn]([CH3])([Cl])[CH2]CC[CH2][Ge]([Cl])([Cl])[Cl]
inactive: dose: 0.78 mg/kg/injection, schedule: Q01DX009 (ip), vehicle: saline 114 % of control | dose: 1.56 mg/kg/injection, schedule: Q01DX009 (ip), vehicle: saline 119 % of control

O=[N+]([O-])c1ccc(SC2=NCCCN2C2CCCCC2)c(Cl)c1
inactive: [1] 97 % of control | [2] 100 % of control | [3] 103 % of control

O=C(Cc1cc2c(cc1Br)OCO2)NCCc1ccc2c(c1)OCO2
inactive: dose: 12.5 mg/kg/injection, schedule: Q01DX001 (ip), vehicle: saline + alcohol 99 % of control | dose: 25.0 mg/kg/injection, schedule: Q01DX001 (ip), vehicle: saline + alcohol 98 % of control | dose: 50.0 mg/kg/injection, schedule: Q01DX001 (ip), vehicle: saline + alcohol 105 % of control

CC#CC#C/C=C1/C=CC(=O)O1
inactive: dose: 12.5 mg/kg/injection, schedule: Q01DX009 (ip), vehicle: Klucel (hydroxypropylcellulose) (HPC) 105 % of control | dose: 25.0 mg/kg/injection, schedule: Q01DX009 (ip), vehicle: Klucel (hydroxypropylcellulose) (HPC) 104 % of control | dose: 50.0 mg/kg/injection, schedule: Q01DX009 (ip), vehicle: Klucel (hydroxypropylcellulose) (HPC) 107 % of control | dose: 100.0 mg/kg/injection, schedule: Q01DX009 (ip), vehicle: Klucel (hydroxypropylcellulose) (HPC) 107 % of control

NC(=O)NC1CCCC1
inactive: [5] 100 % of control | [6] 100 % of control | [7] 100 % of control
